The record followed here is ChEMBL document CHEMBL4814069, “Nucleotide analogues containing a pyrrolidine, piperidine or piperazine ring: Synthesis and evaluation of inhibition of plasmodial and human 6-oxopurine phosphoribosyltransferases and in vitro antimalarial activity” (Eur J Med Chem, 2021).

The Ki is the equilibrium dissociation constant of an inhibitor or competing ligand from its target. Read a low Ki as higher affinity. What is called IC50 is the concentration at which inhibition is half-maximal.

Data set [1] is described as follows: Inhibition of Plasmodium falciparum HGXPRT using PRib-PP as substrate by Hanes-plot based method.
The nature of data set [2]: Selectivity index, ratio of Ki for human HGPRT to Ki for Plasmodium vivax HGPRT. The data set is classed as toxicity.
The nature of data set [3]: Selectivity index, ratio of Ki for human HGPRT to Ki for Plasmodium falciparum HGXPRT. The data set is classed as toxicity.
Data set [4] is described as follows: Inhibition of Plasmodium vivax HGPRT using PRib-PP as substrate by Hanes-plot based method.
The target of data set [5] is T1, Hypoxanthine-guanine phosphoribosyltransferase (Homo sapiens, UniProt P00492).
T1 sequence (P00492 whole entry): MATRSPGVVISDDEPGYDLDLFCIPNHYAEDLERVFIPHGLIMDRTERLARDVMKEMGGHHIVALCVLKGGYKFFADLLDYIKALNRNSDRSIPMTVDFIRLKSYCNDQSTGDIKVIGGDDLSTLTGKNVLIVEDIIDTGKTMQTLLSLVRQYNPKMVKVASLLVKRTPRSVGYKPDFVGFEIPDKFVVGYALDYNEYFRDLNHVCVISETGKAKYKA
As to the kind of experiment: Inhibition of human HGPRT using PRib-PP as substrate by Hanes-plot based method.

Data set [6] relates to HepG2. As to the kind of experiment: Cytotoxicity against human HepG2 cells assessed as reduction in cell viability at 10 uM incubated for 72 hrs by Celltiter-Glo assay. The data set is classed as cell-based. Conditions: hepg2, 72 h. (Cellular ATP, detected with luciferase, serves as a proxy for viable cell number.)
In data set [7] the test system is HL-60. The data set is described as follows: Cytotoxicity against human HL60 cells assessed as reduction in cell viability at 10 uM incubated for 72 hrs by Celltiter-Glo assay. The data set is classed as cell-based. To be noted: hl-60, 72 h.
The subject of data set [8] is NHDF. As to the kind of experiment: Cytotoxicity against human NHDF cells assessed as reduction in cell viability at 50 uM incubated for 72 hrs by Celltiter-Glo assay. The data set is classed as cell-based.
Data set [9] relates to Plasmodium falciparum. As to the kind of experiment: Antimalarial activity against asexual stage of chloroquine-sensitive Plasmodium falciparum D6 infected in human erythrocytes assessed as inhibition of parasite growth measured after 96 hrs by [3H]-hypoxanthine incorporation assay. The class given is functional, organism-based.
Data set [10] relates to HepG2. As to the kind of experiment: Cytotoxicity against human HepG2 cells assessed as reduction in cell viability at 50 uM incubated for 72 hrs by Celltiter-Glo assay. The data set is classed as cell-based. To be noted: hepg2, 72 h.
Data set [11] in a line: Selectivity for antimalarial activity against Plasmodium falciparum over cytotoxicity against human NHDF cells. The class given is toxicity, cell-based. Conditions: read-out: Selectivity Index.
Data set [12] is described as follows: Cytotoxicity against human NHDF cells assessed as cell viability at 100 uM incubated for 72 hrs by Celltiter-Glo assay. Conditions: read-out: Activity. The data set is classed as cell-based.
Data set [13] concerns HeLa S3. As to the kind of experiment: Cytotoxicity against human HeLa S3 cells assessed as reduction in cell viability at 10 uM incubated for 72 hrs by Celltiter-Glo assay. The data set is classed as cell-based. Conditions: hela s3, 72 h.
The test system of data set [14] is NHDF. As to the kind of experiment: Cytotoxicity against human NHDF cells assessed as reduction in cell viability at 10 uM incubated for 72 hrs by Celltiter-Glo assay. The data set is classed as cell-based.
In data set [15] the test system is NHDF. The data set is described as follows: Cytotoxicity against human NHDF cells assessed as reduction in cell viability incubated for 72 hrs by Celltiter-Glo assay. The data set is classed as cell-based.
Data set [16] concerns CCRF-CEM. The data set is described as follows: Cytotoxicity against human CCRF-CEM cells assessed as reduction in cell viability at 10 uM incubated for 72 hrs by Celltiter-Glo assay. The data set is classed as cell-based.
Data set [17] relates to Plasmodium falciparum. The data set is described as follows: Antimalarial activity against asexual stage of chloroquine-resistant Plasmodium falciparum W2 infected in human erythrocytes assessed as parasite growth inhibition measured after 96 hrs by [3H]-hypoxanthine incorporation assay. The data set is classed as functional, organism-based.
The subject of data set [18] is HepG2. The data set is described as follows: Cytotoxicity against human HepG2 cells assessed as reduction in cell viability incubated for 72 hrs by Celltiter-Glo assay. The class given is cell-based. To be noted: HepG2, 72 h.
Data set [19] is described as follows: Selectivity for antimalarial activity against Plasmodium falciparum over cytotoxicity against human HepG2 cells. The data set is classed as toxicity, cell-based. To be noted: read-out: Selectivity Index.
Data set [20] can be described thus: Cytotoxicity against human HepG2 cells assessed as cell viability at 100 uM incubated for 72 hrs by Celltiter-Glo assay. The class given is cell-based. To be noted: read-out: Activity.

Each structure is given as a SMILES string.

For the molecule `Nc1nc2c(ncn2CC2CCCN(CP(=O)([O-])[O-])C2)c(=O)[nH]1.[Na+].[Na+]` (stereo not given), the Ki worked out at 2 µM in data set [1], 29 µM in data set [4] and 7 µM in data set [5]. The results for the “Ratio Ki” value in data set [2] and in data set [3] were 0.24 and 3.5, respectively.
For `O=c1[nH]cnc2c1ncn2CC1CN(CCP(=O)([O-])[O-])CCN1CCP(=O)([O-])[O-].[Na+].[Na+].[Na+].[Na+]` (stereo not given), in that order: 3 µM, 37 µM, 0.43 µM, 0.012 and 0.14.
Take `O=c1[nH]cnc2c1ncn2C[C@@H]1CCCN1CCP(=O)([O-])[O-].[Na+].[Na+]`: the Ki in [1] was 44 µM; in [4], over 50 µM; in [5], over 50 µM. Also, in [3], the “Ratio Ki” value is listed as over 1.1.
With `CCOC(=O)[C@H](Cc1ccccc1)NP(=O)(CCN1CCC[C@H]1Cn1cnc2c(=O)[nH]c(N)nc21)N[C@@H](Cc1ccccc1)C(=O)OCC`, the Activity entry in data set [6], in data set [7], in data set [8], in data set [10], in [13] and in [14] was “Non-Toxic” in each case. Also, the Activity entry in [16] was “Non-Toxic”. In addition, the IC50 in data set [9] is 7.2 µM; in data set [15], 306 µM; in [17], 2.5 µM; in data set [18], over 250 µM. The selectivity ratio in data set [11] and in data set [19] was over 35 in each case. Besides, the viability at 72 h, 100 µM in data set [12] stood at 97%; in data set [20], 98%.
On to `O=c1[nH]cnc2c1ncn2C[C@H]1CCCN1CCP(=O)([O-])[O-].[Na+].[Na+]`, for which the Ki in data set [1] was 15 µM; in [4] it was over 50 µM; in data set [5], over 50 µM. In addition, the “Ratio Ki” value in data set [3] was over 3.3.
On to `Nc1nc2c(ncn2C[C@@H]2CCCN2CCP(=O)([O-])[O-])c(=O)[nH]1.[Na+].[Na+]`, for which the Ki in data set [1] was 5 µM; in [4] it was 20 µM; in data set [5], 9 µM. Moreover, the “Ratio Ki” value is 0.45 in [2] and 1.8 in data set [3].
In the case of `CCOC(=O)[C@H](Cc1ccccc1)NP(=O)(CN1CCCC(Cn2cnc3c(=O)[nH]c(N)nc32)C1)N[C@@H](Cc1ccccc1)C(=O)OCC` (stereo not given in full), the Activity entry in [6], in data set [7], in [8], in [10], in [13] and in data set [14] was “Non-Toxic” throughout. In addition, the Activity result in data set [16] is “Non-Toxic”. For the same molecule, the IC50 in data set [9] came to 11.7 µM; in [17], 3.9 µM. In addition, the viability at 72 h, 100 µM in data set [12] and in data set [20] was 103% each time.
`CCOC(=O)[C@H](Cc1ccccc1)NP(=O)(CCN1CCC[C@@H]1Cn1cnc2c(=O)[nH]cnc21)N[C@@H](Cc1ccccc1)C(=O)OCC`: the Activity result in data set [6], in data set [7], in data set [8], in [10], in [13] and in [14] was “Non-Toxic” in each case. In addition, the Activity result in data set [16] is “Non-Toxic”. Moreover, the IC50 amounted to 7.1 µM in data set [9] and 9.1 µM in data set [17]. The results for the viability at 72 h, 100 µM in data set [12] and in data set [20] were 106% and 98%, respectively.
Turning to `CCOC(=O)[C@H](Cc1ccccc1)NP(=O)(CN1CCCC(Cn2cnc3c(=O)[nH]cnc32)C1)N[C@@H](Cc1ccccc1)C(=O)OCC` (stereo not given in full), the Activity entry in data set [6], in data set [7], in [8], in data set [10], in [13] and in data set [14] was “Non-Toxic” each time. In data set [16], the Activity result was “Non-Toxic”. The IC50 in [9] is 7.9 µM; in [17], 11.7 µM. Besides, the viability at 72 h, 100 µM in [12] turned out to be 107%; in data set [20], 105%.
Regarding `Nc1nc2c(ncn2[C@H]2CCN(C(=O)CP(=O)(O)O)C2)c(=O)[nH]1`, the inhibition constant Ki in data set [1] was determined as 0.4 µM; in data set [4] it was 2.6 µM; in [5], 73 µM. The “Ratio Ki” value came to 28 in data set [2] and 182 in data set [3].
Taken in the same sequence, the figures for `Nc1nc2c(ncn2CC2CN(CCP(=O)([O-])[O-])CCN2CCP(=O)([O-])[O-])c(=O)[nH]1.[Na+].[Na+].[Na+].[Na+]` (stereo not given) were 2 µM, 6 µM, 0.15 µM, 0.025 and 0.075.
On to `O=c1[nH]cnc2c1ncn2CCN(CCOCCP(=O)(O)O)CCP(=O)(O)O`, for which the values for the Ki in data set [1] and in [4] were 0.2 µM and 0.04 µM, respectively.
On to `CCOC(=O)[C@H](Cc1ccccc1)NP(=O)(CCN1CCC[C@@H]1Cn1cnc2c(=O)[nH]c(N)nc21)N[C@@H](Cc1ccccc1)C(=O)OCC`, for which the Activity entry in data set [6], in [7], in data set [8], in [10], in data set [13] and in [14] was “Non-Toxic” each time. For the same molecule, in [16], the Activity result is recorded as “Non-Toxic”. Moreover, the IC50 in data set [9] worked out at 12.1 µM; in data set [17], 8 µM. Besides, the viability at 72 h, 100 µM was 103% in data set [12] and 98% in [20].
In the case of `CCOC(=O)[C@H](Cc1ccccc1)NP(=O)(CCN1CCN(CP(=O)(N[C@@H](Cc2ccccc2)C(=O)OCC)N[C@@H](Cc2ccccc2)C(=O)OCC)CC1Cn1cnc2c(=O)[nH]c(N)nc21)N[C@@H](Cc1ccccc1)C(=O)OCC` (stereo not given in full), the Activity entry in [6], in [7], in data set [8], in [10], in data set [13] and in [14] was “Non-Toxic” throughout. In data set [16], the Activity result is recorded as “Non-Toxic”. In addition, the IC50 in [9] is 55.4 µM; in [17], 32.4 µM. Moreover, the values for the viability at 72 h, 100 µM in data set [12] and in [20] were 14% and 104%, respectively.
Take `Nc1nc2c(ncn2CCN(CCOCCP(=O)(O)O)CCP(=O)(O)O)c(=O)[nH]1`: the Ki in [1] worked out at 0.19 µM; in data set [4], 0.03 µM. Further, the results for the “Ratio Ki” value in data set [2] and in data set [3] were 2.725 and 0.45, respectively.
With `Nc1nc2c(ncn2C[C@H]2CCCN2CCP(=O)([O-])[O-])c(=O)[nH]1.[Na+].[Na+]`, the Ki is 30 µM in data set [1], 39 µM in [4] and over 50 µM in data set [5]. Besides, the “Ratio Ki” value was over 1.3 in data set [2] and over 1.7 in [3].
As for `O=c1[nH]cnc2c1ncn2CC1CCCN(CP(=O)([O-])[O-])C1.[Na+].[Na+]` (stereo not given), the results for the Ki in [1], in data set [4] and in data set [5] were 17 µM, 72 µM and over 50 µM, respectively. For the same molecule, the results for the “Ratio Ki” value in data set [2] and in [3] were over 0.7 and over 2.9, respectively.
For `O=c1[nH]cnc2c(C3=NCCN3CCCP(=O)(O)O)c[nH]c12`, in that order: 4.7 µM, 6 µM, over 74 µM, over 12 and over 16.
Consider `CCOC(=O)[C@H](Cc1ccccc1)NP(=O)(CCN1CCN(CP(=O)(N[C@@H](Cc2ccccc2)C(=O)OCC)N[C@@H](Cc2ccccc2)C(=O)OCC)CC1Cn1cnc2c(=O)[nH]cnc21)N[C@@H](Cc1ccccc1)C(=O)OCC` (stereo not given in full), for which the Activity entry in data set [6], in data set [7], in data set [8], in [10], in [13] and in [14] was “Non-Toxic” in each case. In addition, in [16], the Activity result is given as “Non-Toxic”. Further, the values for the IC50 in data set [9] and in data set [17] were 5.1 µM and 2.7 µM, respectively. Further, the viability at 72 h, 100 µM in data set [12] was determined as 3%; in [20], 82%.
